Structures can show the parent of a compound that is named as a salt.
How the values were obtained:
[1] = tested on: BT474 tumor cell line; test: Methylene blue growth inhibition assay, BT474; format: cell-based; details: Homo sapiens, BT-474, 72 h; BT474, 3 days, IC50 classes
Experimental: Human breast (BT474), head and neck (HN5) and gastric tumor (N87) cell lines and human foreskin Fibroblasts (HFF) were cultured in low glucose DMEM (Life Technologies 12320-032) containing 10% fetal bovine serum (FBS) at 37° C. in a humidified 10% CO2, 90% air incubator. The SV40 transformed human mammary epithelial cell line HB4a was transfected with either human H-ras cDNA (HB4a r4.2) or the human c-ErbB2 cDNA (HB4a c5.2). The HB4a clones were cultured in RPMI containing 10% FBS, insulin (5 μg/ml), hydrocortisone (5 μg/ml), supplemented with the selection agent hygromycin B (50μg/ml). Cells were harvested using trypsin/EDTA, counted using a haemocytometer, and plated in […] of the appropriate media, at the following densities, in a 96-well tissue culture plate (Falcon 3075): BT474 10,000 cells/well, HN5 3,000 cells/well, N87 10,000 cells/well, HB4a c5.2 3,000 cells/well, HB4a r4.2 3,000 cells/well, HFF 2500 cells/well. The next day, compounds were diluted in DMEM containing […] gentamicin, at twice the final required concentration, from 10 mM stock solutions in DMSO. […] of these dilutions were added to the […] of media currently on the cell plates. Medium containing 0.6% DMSO was added to control wells. Compounds diluted in DMEM were added to all cell lines, including the HB4a r4.2 and HB4a c5.2 cell lines. The final concentration of DMSO in all wells was 0.3%. Cells were incubated at 37° C., 10% CO2 for 3 days. Medium was removed by aspiration. Cell biomass was estimated by staining cells with 100 μl per well methylene blue (Sigma M9140, 0.5% in 50:50 ethanol:water), and incubation at room temperature for at least 30 minutes. Stain was removed, and the plates rinsed under a gentle stream of water, and air-dried. To release stain from the cells 100 μl of solubilization solution was added (1% N-lauroyl sarcosine, Sodium salt, Sigma L5125, in PBS), and plates were shaken gently for about 30 minutes. Optical density at 620 nm was measured on a microplate reader. Percent inhibition of cell growth was calculated relative to vehicle treated control wells. Concentration of compound that inhibits 50% of cell growth (IC50) was interpolated using nonlinear regression (Levenberg-Marquardt) and the equation, y=Vmax*(1−(x/(K+x)))+Y2, where “K” was equal to the IC50.
Table I illustrates the inhibitory activity of compounds of the present invention as IC50 values in μM against and the BT474 tumor cell line. Using HFF as a representative, human, normal cell line, values for cytotoxicity are supplied as IC50 values in micromolar.

[2] = target: T1, ErbB-2 (Homo sapiens, UniProt P04626); test: ErbB-2 substrate phosphorylation enzyme assay (scintillation proximity); format: biochemical; details: ErbB-2, pIC50 classes
T1 construct: made in house
Experimental: Compounds of the present invention were tested for EGFR, ErbB-2, and ErbB-4 protein tyrosine kinase inhibitory activity in substrate phosphorylation assays using enzymes purified from a baculovirus expression system. Reagent production and assay methodology were conducted essentially as described (Brignola, P.S., et al, (2002) J. Biol. Chem. v. 277 in press).
The method measures the ability of the isolated enzyme to catalyse the transfer of the γ-phosphate from ATP onto tyrosine residues in a biotinylated synthetic peptide (biotin-Ahx-RAHEEIYHFFFAKKK-amide). Reactions were performed in 96-well polystyrene round-bottom plates in a final volume of 45 μL. Reaction mixtures contained 50 mM MOPS (pH 7.5), 2 mM MnCl2, 10 μM ATP, 0.125 μCi [γ-^33P] ATP per reaction, 2 μM peptide substrate, and I mM dithiothreitol. Reactions were initiated by adding 1 pmol (20 nM) per reaction of the indicated enzyme. The reaction was allowed to proceed for 15 minutes, terminated and quantified using a scintillation proximity assay procedure as described in McDonald, O. B., Antonsson, B., Arkinstal, S., Marshall, C. J., and Wood, E. R. (1999) Analytical Biochemistry, 268, 318-329.
Compounds under analysis were dissolved in Me2SO to 0.5 mM and serially diluted 1 to 3 with Me2SO through eleven columns of a 96 well plate. 1 μL of each concentration was transferred to the corresponding well of the assay plate. This creates a final compound concentration range from 0.00019 to 11.1 μM.
The data for dose responses were plotted as % Control calculated with the data reduction formula 100*(U1−C2)/(C1−C2) versus concentration of compound and fitted to the curve described by: y=((Vmax*x)/(K+x)) where Vmax is the upper asymptote and K is the IC50. Cellular assays: Methylene Blue Growth Inhibition Assay

T1 sequence (P04626 691-1255 limits assumed): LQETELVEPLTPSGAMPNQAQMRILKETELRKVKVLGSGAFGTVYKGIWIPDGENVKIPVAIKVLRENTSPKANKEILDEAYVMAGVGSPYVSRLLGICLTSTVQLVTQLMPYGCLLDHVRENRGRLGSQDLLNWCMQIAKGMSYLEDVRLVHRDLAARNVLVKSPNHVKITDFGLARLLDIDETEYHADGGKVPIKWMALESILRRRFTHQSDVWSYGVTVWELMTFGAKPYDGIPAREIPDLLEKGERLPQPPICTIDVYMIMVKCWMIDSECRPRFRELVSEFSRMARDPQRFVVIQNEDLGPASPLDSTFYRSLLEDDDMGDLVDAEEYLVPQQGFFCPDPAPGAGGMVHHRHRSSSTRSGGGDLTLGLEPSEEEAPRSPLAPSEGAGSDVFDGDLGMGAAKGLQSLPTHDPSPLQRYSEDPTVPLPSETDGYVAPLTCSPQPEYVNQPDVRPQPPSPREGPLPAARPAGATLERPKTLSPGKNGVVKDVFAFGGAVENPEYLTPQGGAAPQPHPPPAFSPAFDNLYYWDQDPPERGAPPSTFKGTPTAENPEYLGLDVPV

Row | melting point | IC50 [1] | IC50 [2] | Compound
1 |  | < 1500 nM | < 31.6 nM | CS(=O)(=O)CCNC(=O)NCC#Cc1cc2c(Nc3ccc(OCc4cccc(F)c4)c(Cl)c3)ncnc2s1 [N-{3-[4-({3-chloro-4-[(3-fluorobenzyl)oxy]phenyl}amino)thieno[2,3-d]pyrimidin-6-yl]prop-2-ynyl}-N′-[2-(methylsulfonyl)ethyl]urea]
2 | 242 °C |  |  | Fc1cccc(COc2ccc(Nc3ncnc4cc(C#Cc5ccccn5)sc34)cc2Cl)c1 [Example 78, N-{3-chloro-4-[(3-fluorobenzyl)oxy]phenyl}-6-(pyridin-2-yiethynyl)thieno[3,2-d]pyrimidin-4-amine]
3 |  | 1500 to 5000 nM | 31.6 to 100 nM | O=C(NCC#Cc1cc2ncnc(Nc3ccc(OCc4cccc(F)c4)c(Cl)c3)c2s1)c1csc(-c2ccncc2)n1 [N-{3-[4-({3-chloro-4-[(3-fluorobenzyl)oxy]phenyl}amino)thieno[3,2-d]pyrimidin-6-yl]prop-2-ynyl}-2-pyridin-4-yl-1,3-thiazole-4-carboxamide]
4 |  | > 5000 nM | > 100 nM | CC(C)CN(CC#Cc1cc2ncnc(Nc3ccc(OCc4cccc(F)c4)c(Cl)c3)c2s1)CC(C)C [N-{3-chloro-4-[(3-fluorobenzyl)oxy]phenyl}-6-[3-(diisobutylamino)prop-1-ynyl]thieno[3,2-d]pyrimidin-4-amine]
5 | 180 °C |  |  | Fc1cccc(COc2ccc(Nc3ncnc4sc(C#Cc5ccccn5)cc34)cc2Cl)c1 [Example 99, N-{3-chloro-4-[(3-fluorobenzyl)oxy]phenyl}-6-(pyridin-2-ylethynyl)thieno[2,3-d]pyrimidin-4-amine]
6 |  | < 1500 nM | < 31.6 nM | CS(=O)(=O)CCNCC#Cc1cc2ncnc(Nc3ccc(OCc4cccc(F)c4)c(Cl)c3)c2s1 [N-{3-Chloro-4-[(3-fluorobenzyl)oxy]phenyl}-6-(3-{[2-(methylsulfonyl)ethyl]amino}prop-1-ynyl)thieno[3,2-d]pyrimidin-4-amine hydrochloride]
7 | 204 °C |  |  | Fc1cccc(COc2ccc(Nc3ncnc4sc(C#Cc5nccs5)cc34)cc2Cl)c1 [Example 101, N-{3-chloro-4-[(3-fluorobenzyl)oxy]phenyl}-6-(1,3-thiazol-2-ylethynyl)thieno[2,3-d]pyrimidin-4-amine]
8 | 236 to 240 °C |  |  | Fc1cccc(COc2ccc(Nc3ncnc4cc(C#Cc5ncccn5)sc34)cc2Cl)c1 [Example 77, N-{3-chloro-4-[(3-fluorobenzyl)oxy]phenyl}-6-(pyrimidin-2-ylethynyl)thieno[3,2-d]pyrimidin-4-amine]
9 |  | 1500 to 5000 nM | 31.6 to 100 nM | O=C(CCc1ccc(F)cc1)NCC#Cc1cc2ncnc(Nc3ccc(OCc4cccc(F)c4)c(Cl)c3)c2s1 [N-{3-[4-({3-chloro-4-[(3-fluorobenzyl)oxy]phenyl}amino)thieno[3,2-d]pyrimidin-6-yl]prop-2-ynyl}-3-(4-fluorophenyl)propanamide]

The next lines start with the molecule.

Row | Compound | melting point | IC50 [1] | IC50 [2]
10 | Fc1cccc(COc2ccc(Nc3ncnc4sc(C#Cc5ncccn5)cc34)cc2Cl)c1 [N-{3-chloro-4-[(3-fluorobenzyl)oxy]phenyl)-6-(pyrimidin-2-ylethynyl)thieno[2,3-d]pyrimidin-4-amine] | 225 °C | 1500 to 5000 nM | 31.6 to 100 nM
11 | CN1CCN(CC(=O)NCC#Cc2cc3ncnc(Nc4ccc(OCc5cccc(F)c5)c(Cl)c4)c3s2)CC1 [N-{3-[4-({3-Chloro-4-[(3-fluorobenzyl)oxy]phenyl}amino)thieno[3,2-d]pyrimidin-6-yl]prop-2-ynyl}-2-(4-methylpiperazin-1-yl)acetamide] |  | < 1500 nM | < 31.6 nM
12 | O=C(NCC#Cc1cc2ncnc(Nc3ccc(OCc4cccc(F)c4)c(Cl)c3)c2s1)c1c(Cl)cccc1Cl [2,6-dichloro-N-{3-[4-({3-chloro-4-[(3-fluorobenzyl)oxy]phenyl}amino)thieno[3,2-d]pyrimidin-6-yl]prop-2-ynyl}benzamide] |  | 1500 to 5000 nM | 31.6 to 100 nM
13 | CN(C)CCNC(=O)NCC#Cc1cc2c(Nc3ccc(OCc4cccc(F)c4)c(Cl)c3)ncnc2s1 [N-{3-[4-({3-chloro-4-[(3-fluorobenzyl)oxy]phenyl}amino)thieno[2,3-d]pyrimidin-6-yl]prop-2-ynyl)N′-[2-(dimethylamino)ethyl]urea] |  | < 1500 nM | < 31.6 nM
14 | O=C(Cc1ccc(Cl)c(Cl)c1)NCC#Cc1cc2ncnc(Nc3ccc(OCc4cccc(F)c4)c(Cl)c3)c2s1 [N-{3-[4-({3-chloro-4-[(3-fluorobenzyl)oxy]phenyl}amino)thieno[3,2-d]pyrimidin-6-yl]prop-2-ynyl}-2-(3,4-dichlorophenyl)acetamide] |  | > 5000 nM | > 100 nM
15 | O=C(NCC#Cc1cc2ncnc(Nc3ccc(OCc4cccc(F)c4)c(Cl)c3)c2s1)c1ccc2[nH]ccc2c1 [N-{3-[4-({3-chloro-4-[(3-fluorobenzyl)oxy]phenyl}amino)thieno[3,2-d]pyrimidin-6-yl]prop-2-ynyl}-1H-indole-5-carboxamide] |  | 1500 to 5000 nM | 31.6 to 100 nM
